Counter-ions that a name gives are not always drawn. The source made the active and inactive calls.
How the values were obtained:
[1] = target: G-protein coupled receptor 183 (Homo sapiens, UniProt P32249); test: SAR confirmation of small molecule antagonists of the EBI2 receptor via a luminescent beta-arrestin assa.; format: functional
[2] = NIH-3T3 fibroblast cytotoxicity, dose response, cytotoxicity control, cell-based, fluorescence, Alamar Blue, secondary assay (AID 2327); format: functional;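 also: NIH-3T3 mouse fibroblasts cultured with fluconazole at 8 µg/mL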
[3] = fluconazole-exposed Candida albicans growth modulators – fluorescence, retest, confirmation (AID 2467); format: functional, cell-based
[4] = target: Albumin (Bos taurus, UniProt P02769); test: Counterscreen for inhibitors of T-cell receptor (TCR)-CD3 interaction: Fluorescence-based biochemical high throughput dose response assay to identify inhibitors of T-cell receptor (TCR)-CD3 interaction using a TAMRA-labeled BSA probe.; format: functional
[5] = target: T1, Protein Tat (Human immunodeficiency virus type 1 group M subtype B (isolate HXB2)(HIV-1), UniProt P04608); format: functional;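 also: tat binding to TAR RNA read out by fluorescence polarization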
T1 sequence (P04608 whole entry): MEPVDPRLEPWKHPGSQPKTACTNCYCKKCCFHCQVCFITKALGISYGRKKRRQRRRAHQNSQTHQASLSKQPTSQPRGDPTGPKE

[6] = Trypanosoma cruzi growth suppression in host cells – NIH3T3 host cells, beta-gal luminescence, confirmation (AID 2044); format: functional, cell-based;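 also: intracellular parasites grown in NIH/3T3 mouse fibroblasts as host cells; luminescent beta-galactosidase reporter signal from transgenic T. cruzi replicating inside host cells; inhibitors lower the luminescence signal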
[7] = NIH3T3 cell viability loss – ATP luminescence, mouse fibroblasts, counter-screen, dose response (AID 2010); format: functional, cell-based;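 also: cells exposed to compound for about 90 hours before reading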
[8] = cells
[9] = system: Streptococcus sp. 'group A'; test: Streptococcus pyogenes SK(-)GAS viability under kanamycin – luminescence, BacTiterGlo, confirmation, counter-screen for streptokinase expression inhibitor project, dose response (AID 1900); format: functional, organism-based
[10] = system: Streptococcus; test: GAS UMAA2166 growth inhibition – luminescence, BacTiterGlo, counter-screen for streptokinase expression inhibitor project, dose response (AID 1915); format: functional, organism-based;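 also: potency for reduction of bacterial viability or growth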
[11] = cells; format: functional, cell-based
[12] = target: T2, Nuclear receptor subfamily 0 group B member 1 (Homo sapiens, UniProt P51843); format: functional, cell-based;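 also: HEK293T cells transfected with SF-1 and DAX-1 plus StAR promoter luciferase reporter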
T2 sequence (P51843 whole entry): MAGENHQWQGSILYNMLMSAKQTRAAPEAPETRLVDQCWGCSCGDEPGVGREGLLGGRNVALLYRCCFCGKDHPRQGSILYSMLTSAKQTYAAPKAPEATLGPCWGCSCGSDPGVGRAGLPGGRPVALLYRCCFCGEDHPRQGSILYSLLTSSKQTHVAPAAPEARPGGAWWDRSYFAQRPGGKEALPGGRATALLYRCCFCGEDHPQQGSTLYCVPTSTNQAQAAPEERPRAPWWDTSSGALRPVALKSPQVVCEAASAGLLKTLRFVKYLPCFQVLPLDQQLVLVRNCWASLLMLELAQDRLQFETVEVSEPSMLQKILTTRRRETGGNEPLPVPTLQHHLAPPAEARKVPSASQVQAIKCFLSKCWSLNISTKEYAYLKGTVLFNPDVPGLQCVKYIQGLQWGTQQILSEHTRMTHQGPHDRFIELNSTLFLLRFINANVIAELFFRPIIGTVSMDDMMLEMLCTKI

[13] = target: Paired box protein Pax-8 (Homo sapiens, UniProt Q06710); test: PAX8 transcriptional activity inhibition in RMG-I – RMG-I cells, luciferase, cherry-pick, dose response (AID 687027); format: functional, cell-based;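 also: luciferase reporter driven by Pax8 target thyroperoxidase promoter measured by SteadyGlo luminescence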
[14] = rise of 2N DNA cells, HeLa – IC50, dose response (AID 1117349); format: functional, cell-based
[15] = RKO cell viability reduction, dose response, CellTiter-Glo luminescence (AID 1117322); format: functional
[16] = cytotoxicity toward HCT116 cells – cell-based, CellTiter-Glo luminescence, IC50, dose response (AID 1117332); format: functional; conditions: HCT-116
[17] = cytotoxicity toward Colo320 cells – cell-based, CellTiter-Glo luminescence, IC50, dose response (AID 1117334); format: functional; conditions: COLO 320
[18] = rise of 4N DNA cells, HeLa – IC50, dose response (AID 1117351); format: functional, cell-based
[19] = cytotoxicity toward HT-29 cells – cell-based, CellTiter-Glo luminescence, IC50, dose response (AID 1117330); format: functional
[20] = HCT116 cell viability decrease, GSK3B pretreatment – CellTiter-Glo, IC50, dose response (AID 1117339); format: functional; conditions: HCT-116
[21] = potency of ADAM10 substrate cleavage blockers – biochemical, QFRET, dose response (AID 743254);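 also: ADAM10 enzyme with the DM2 quenched FRET peptide as substrate; EDANS fluorescence gain as the protease cuts the substrate; inhibitor potency against ADAM10 proteolytic activity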
[22] = target: Disintegrin and metalloproteinase domain-containing protein 17 (Homo sapiens, UniProt P78536); test: inhibition of ADAM17 substrate cleavage – biochemical, quenched FRET substrate, counter-screen for ADAM10 exosite inhibitor project, dose response (AID 743253)
[23] = target: Mitogen-activated protein kinase 10 (Homo sapiens, UniProt P53779); test: Dose response biochemical screening assay for inhibitors of c-Jun N-Terminal Kinase 3 (JNK3). [Related pubchem assays: 746 ]
[24] = blockers of HIV-1 envelope-mediated cell-cell fusion – cherry-pick, dose response (AID 652057); format: functional, cell-based
[25] = viability loss in CEM21 cells – cell-based, CellTiter-Glo luminescence, cherry-picked, cytotoxicity control for viral fusion inhibitor project, dose response (AID 652042); format: functional;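 also: potency for signal decrease meaning cytotoxicity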
[26] = blockers of HIV-1 ZM109 envelope-driven cell-cell fusion – HeLa effector, CEM target cells, luciferase, cherry-pick, dose response (AID 652058); format: functional, cell-based;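 also: luciferase signal from HIV-1 Env mediated cell-cell fusion of effector and target cells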
[27] = off-target signal loss in HeLa-CEM21 co-culture – HeLa F-luc CTL cells, cherry-picked, counter-screen for HIV-1 Env fusion inhibitor project, dose response (AID 652040); format: functional, cell-based;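 also: potency for signal decrease marking cytotoxic or nonspecific inhibition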
[28] = HIV-1 AD8 envelope cell-cell fusion blockers – cherry-pick, dose response (AID 652062); format: functional, cell-based;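 also: luciferase signal from cell-cell fusion driven by HIV-1 clade B AD8 Env; potency is for inhibitors of fusion seen as a drop in luminescence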
[29] = target: Peroxisome proliferator-activated receptor gamma/Nuclear receptor corepressor 2 (Homo sapiens, UniProt P37231+Q9Y618); test: Counterscreen for NR2E3 inverse agonists: TR-FRET-based biochemical high throughput dose response assay to identify inverse agonists of the interaction between peroxisome proliferator-activated receptor gamma (PPARg) and nuclear receptor co-repressor 2 (NCOR2).; format: functional
[30] = target: Photoreceptor-specific nuclear receptor (Homo sapiens, UniProt Q9Y5X4); test: ligands suppressing NR2E3 nuclear receptor activity – biochemical, TR-FRET, dose response (AID 463256); format: functional
[31] = target: T3, Cysteine protease ATG4B (Homo sapiens, UniProt Q9Y4P1); format: functional;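 also: Fluorescence-based dose-response confirmation assay measuring inhibition of ATG4B activity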
T3 sequence (Q9Y4P1 whole entry): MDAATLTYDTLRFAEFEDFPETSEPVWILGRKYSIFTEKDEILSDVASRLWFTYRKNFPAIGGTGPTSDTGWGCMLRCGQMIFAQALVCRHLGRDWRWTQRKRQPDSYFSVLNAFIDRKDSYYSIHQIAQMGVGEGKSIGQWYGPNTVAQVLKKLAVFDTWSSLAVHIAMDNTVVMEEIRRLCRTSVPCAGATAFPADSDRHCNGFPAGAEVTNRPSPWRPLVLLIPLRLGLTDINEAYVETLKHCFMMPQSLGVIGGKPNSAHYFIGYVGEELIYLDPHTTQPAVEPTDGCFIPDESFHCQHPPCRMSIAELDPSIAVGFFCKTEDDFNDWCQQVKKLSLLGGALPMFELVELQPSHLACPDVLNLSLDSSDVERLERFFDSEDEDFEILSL

[32] = target: Phospholipase A2 (Homo sapiens, UniProt P04054); format: functional;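 also: confirmatory dose-response counterscreen on phospholipase A2, testing hits that came from an ultra-high-throughput screen for ATG4B inhibitors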
[33] = A cytotoxicity screen of small molecule inhibitors of the PhoP region in Salmonella typhi identified in the primary screen. [Related pubchem assays: 1850, 1864, 1985 ]; format: functional

Sequence of G-protein coupled receptor 183 (P32249 whole entry): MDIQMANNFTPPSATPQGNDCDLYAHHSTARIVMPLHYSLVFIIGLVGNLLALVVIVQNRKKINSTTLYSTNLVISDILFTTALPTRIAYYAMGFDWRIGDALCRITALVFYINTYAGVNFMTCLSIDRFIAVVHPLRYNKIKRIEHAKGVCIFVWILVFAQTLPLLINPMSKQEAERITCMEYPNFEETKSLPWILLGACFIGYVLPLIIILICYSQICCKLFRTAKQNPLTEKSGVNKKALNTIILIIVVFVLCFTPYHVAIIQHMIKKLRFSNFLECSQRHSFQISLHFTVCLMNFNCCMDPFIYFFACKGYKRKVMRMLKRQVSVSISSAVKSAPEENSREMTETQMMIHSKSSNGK
Sequence of Albumin (P02769 whole entry): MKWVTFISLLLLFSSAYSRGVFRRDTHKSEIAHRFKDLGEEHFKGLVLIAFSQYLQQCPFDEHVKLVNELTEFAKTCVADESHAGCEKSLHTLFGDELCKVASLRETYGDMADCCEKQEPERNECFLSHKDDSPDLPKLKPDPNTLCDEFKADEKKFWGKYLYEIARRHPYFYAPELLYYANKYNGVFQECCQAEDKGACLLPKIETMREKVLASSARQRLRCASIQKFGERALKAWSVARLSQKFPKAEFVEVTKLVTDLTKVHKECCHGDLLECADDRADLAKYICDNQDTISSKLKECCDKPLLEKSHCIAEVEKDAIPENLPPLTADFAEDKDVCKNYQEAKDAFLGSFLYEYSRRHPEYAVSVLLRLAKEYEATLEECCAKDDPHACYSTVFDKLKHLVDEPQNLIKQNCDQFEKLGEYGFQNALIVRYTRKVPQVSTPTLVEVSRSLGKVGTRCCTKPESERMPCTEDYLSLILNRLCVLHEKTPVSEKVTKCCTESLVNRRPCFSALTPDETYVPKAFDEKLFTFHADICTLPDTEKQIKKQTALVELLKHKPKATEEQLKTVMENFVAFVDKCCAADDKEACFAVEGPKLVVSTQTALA
Sequence of Photoreceptor-specific nuclear receptor (Q9Y5X4 whole entry): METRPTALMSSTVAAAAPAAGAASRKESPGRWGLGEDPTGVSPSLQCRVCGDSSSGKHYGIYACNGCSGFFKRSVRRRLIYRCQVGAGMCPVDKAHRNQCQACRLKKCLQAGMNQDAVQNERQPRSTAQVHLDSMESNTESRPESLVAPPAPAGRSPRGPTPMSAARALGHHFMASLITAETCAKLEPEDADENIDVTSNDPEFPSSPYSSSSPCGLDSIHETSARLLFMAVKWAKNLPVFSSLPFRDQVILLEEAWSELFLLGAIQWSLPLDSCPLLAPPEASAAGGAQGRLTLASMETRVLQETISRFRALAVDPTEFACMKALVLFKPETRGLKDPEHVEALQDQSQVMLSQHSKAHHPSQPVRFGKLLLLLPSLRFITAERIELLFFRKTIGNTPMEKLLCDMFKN
Sequence of Peroxisome proliferator-activated receptor gamma/Nuclear receptor corepressor 2 (P37231 whole entry): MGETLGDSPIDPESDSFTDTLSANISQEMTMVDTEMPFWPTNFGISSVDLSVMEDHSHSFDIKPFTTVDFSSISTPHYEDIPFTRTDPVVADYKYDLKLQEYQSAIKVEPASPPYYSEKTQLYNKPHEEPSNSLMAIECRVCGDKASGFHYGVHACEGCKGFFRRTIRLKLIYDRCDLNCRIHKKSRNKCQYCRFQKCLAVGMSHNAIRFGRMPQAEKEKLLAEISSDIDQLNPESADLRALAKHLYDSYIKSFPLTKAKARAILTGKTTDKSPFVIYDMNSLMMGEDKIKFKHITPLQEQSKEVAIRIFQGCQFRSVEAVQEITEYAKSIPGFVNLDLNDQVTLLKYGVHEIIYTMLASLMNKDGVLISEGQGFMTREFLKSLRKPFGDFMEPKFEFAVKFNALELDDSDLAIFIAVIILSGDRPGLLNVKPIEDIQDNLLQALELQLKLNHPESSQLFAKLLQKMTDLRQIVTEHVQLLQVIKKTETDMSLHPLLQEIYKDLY
Sequence of Peroxisome proliferator-activated receptor gamma/Nuclear receptor corepressor 2 (Q9Y618 whole entry): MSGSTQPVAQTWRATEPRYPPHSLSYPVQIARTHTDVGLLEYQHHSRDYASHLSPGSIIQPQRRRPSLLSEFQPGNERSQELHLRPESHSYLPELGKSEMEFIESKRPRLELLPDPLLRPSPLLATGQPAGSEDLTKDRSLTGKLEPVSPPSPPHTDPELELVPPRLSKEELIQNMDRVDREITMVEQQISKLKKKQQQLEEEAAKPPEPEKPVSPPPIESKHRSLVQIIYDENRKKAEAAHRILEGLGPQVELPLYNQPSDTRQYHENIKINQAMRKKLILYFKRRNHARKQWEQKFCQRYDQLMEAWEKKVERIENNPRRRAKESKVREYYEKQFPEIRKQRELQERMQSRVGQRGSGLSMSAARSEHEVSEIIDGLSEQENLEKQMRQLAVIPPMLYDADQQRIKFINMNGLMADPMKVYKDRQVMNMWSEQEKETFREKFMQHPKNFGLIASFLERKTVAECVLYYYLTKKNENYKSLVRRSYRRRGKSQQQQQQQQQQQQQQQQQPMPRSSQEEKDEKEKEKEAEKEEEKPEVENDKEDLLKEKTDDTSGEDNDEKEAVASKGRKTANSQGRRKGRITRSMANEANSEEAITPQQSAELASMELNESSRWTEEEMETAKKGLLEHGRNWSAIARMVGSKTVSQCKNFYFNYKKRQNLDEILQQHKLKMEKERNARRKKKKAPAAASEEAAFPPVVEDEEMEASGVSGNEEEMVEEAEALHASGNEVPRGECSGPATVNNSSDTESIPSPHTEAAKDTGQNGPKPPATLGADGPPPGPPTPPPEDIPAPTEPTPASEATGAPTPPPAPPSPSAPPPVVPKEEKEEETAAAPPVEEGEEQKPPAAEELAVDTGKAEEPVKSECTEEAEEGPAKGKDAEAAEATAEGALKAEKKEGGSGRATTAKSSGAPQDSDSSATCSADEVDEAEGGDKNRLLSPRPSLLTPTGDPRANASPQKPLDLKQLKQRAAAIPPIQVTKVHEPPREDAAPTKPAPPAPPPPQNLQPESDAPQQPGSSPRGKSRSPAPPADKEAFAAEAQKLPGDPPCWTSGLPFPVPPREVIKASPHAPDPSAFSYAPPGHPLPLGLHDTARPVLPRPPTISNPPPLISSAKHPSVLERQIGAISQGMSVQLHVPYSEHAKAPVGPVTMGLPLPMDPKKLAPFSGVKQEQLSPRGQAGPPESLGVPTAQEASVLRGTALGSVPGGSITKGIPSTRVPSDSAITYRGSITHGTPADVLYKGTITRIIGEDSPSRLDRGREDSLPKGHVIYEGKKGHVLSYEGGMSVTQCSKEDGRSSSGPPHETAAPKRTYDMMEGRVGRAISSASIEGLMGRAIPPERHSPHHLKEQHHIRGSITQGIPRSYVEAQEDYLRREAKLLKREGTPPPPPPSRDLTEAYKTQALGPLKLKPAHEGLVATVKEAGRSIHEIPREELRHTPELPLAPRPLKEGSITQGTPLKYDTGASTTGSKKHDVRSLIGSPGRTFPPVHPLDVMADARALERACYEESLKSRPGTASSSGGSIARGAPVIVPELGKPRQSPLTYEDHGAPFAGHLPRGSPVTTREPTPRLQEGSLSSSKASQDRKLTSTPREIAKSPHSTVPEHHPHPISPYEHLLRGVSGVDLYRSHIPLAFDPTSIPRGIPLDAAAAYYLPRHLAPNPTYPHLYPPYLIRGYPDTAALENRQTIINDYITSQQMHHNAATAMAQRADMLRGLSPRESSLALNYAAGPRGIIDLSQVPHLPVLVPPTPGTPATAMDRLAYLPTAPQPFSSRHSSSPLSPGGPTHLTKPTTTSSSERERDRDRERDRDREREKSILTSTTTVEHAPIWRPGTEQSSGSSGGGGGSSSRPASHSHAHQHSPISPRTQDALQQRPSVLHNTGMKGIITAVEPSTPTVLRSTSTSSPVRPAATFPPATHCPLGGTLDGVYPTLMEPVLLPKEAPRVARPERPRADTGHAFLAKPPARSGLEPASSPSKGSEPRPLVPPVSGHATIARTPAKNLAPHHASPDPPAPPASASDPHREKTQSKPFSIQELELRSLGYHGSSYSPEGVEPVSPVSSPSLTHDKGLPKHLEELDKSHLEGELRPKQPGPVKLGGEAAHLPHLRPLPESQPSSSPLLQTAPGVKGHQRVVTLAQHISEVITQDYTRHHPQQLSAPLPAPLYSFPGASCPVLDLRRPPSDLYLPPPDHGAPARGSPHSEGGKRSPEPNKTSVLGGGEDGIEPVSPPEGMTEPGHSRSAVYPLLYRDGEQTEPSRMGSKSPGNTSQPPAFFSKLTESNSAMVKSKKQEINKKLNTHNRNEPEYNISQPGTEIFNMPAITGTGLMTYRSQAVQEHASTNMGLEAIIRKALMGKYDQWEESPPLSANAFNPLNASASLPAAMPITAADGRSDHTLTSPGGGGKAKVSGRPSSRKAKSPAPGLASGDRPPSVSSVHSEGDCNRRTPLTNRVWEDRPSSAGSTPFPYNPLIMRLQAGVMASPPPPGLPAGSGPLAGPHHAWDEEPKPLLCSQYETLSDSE
Sequence of Phospholipase A2 (P04054 whole entry): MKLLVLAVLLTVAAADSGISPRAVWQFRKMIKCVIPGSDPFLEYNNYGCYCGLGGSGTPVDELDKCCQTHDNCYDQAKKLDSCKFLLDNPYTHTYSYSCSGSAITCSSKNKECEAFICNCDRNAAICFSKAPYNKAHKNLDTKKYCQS
Sequence of Mitogen-activated protein kinase 10 (P53779 whole entry, the tested form may be a part): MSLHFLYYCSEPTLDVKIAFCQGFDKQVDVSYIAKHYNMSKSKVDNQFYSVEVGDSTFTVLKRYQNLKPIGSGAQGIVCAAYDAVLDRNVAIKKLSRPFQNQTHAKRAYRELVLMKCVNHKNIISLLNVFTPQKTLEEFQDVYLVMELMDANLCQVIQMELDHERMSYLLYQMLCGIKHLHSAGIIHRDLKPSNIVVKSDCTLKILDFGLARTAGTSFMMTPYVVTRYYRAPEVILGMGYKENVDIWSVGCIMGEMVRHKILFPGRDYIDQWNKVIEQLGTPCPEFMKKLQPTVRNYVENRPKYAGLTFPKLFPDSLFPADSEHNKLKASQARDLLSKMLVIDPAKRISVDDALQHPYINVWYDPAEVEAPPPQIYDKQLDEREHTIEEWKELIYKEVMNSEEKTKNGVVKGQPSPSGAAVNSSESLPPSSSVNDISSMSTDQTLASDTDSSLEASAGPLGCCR

For `CCCCC(=O)N1CCN(C(=O)/C=C/c2ccc(Br)cc2)CC1`, the IC50 [1] was 0.00562 µM (active).

In the case of `COc1ccc(/C=N\NC(=O)c2cc(O)c(O)c(O)c2)cc1CN1CCN(c2ccc(F)cc2)CC1`, the EC50 [2] is reported as > 150 µM (inactive), the EC50 [3] is reported as 1.46 µM (active) and the IC50 [4] is reported as > 94.2 µM (inactive). The IC50 [5] was > 100 µM (inconclusive).

In the case of `COc1ccc(CC(=O)NCC2CCCN(Cc3ccc(SC)cc3)C2)cc1` (stereo not given), the EC50 [6] is reported as < 0.1 µM (active), the EC50 [7] is reported as > 60 µM (not active) and the EC50 [8] is reported as 0.034 µM (active).

For `O=C(CNC(=O)c1ccccc1Br)N/N=C\c1cc([N+](=O)[O-])cc(Br)c1O`, the EC50 [9] was 8.28 µM (active), the EC50 [10] was 8.46 µM (active) and the IC50 [4] was > 94.1 µM (inactive).

For `CC[C@]1(O)C[C@@H]2CN(CCc3c([nH]c4ccccc34)[C@@](C(=O)OC)(c3cc4c(cc3OC)N(C)[C@H]3[C@@](O)(C(=O)OC)[C@H](OC(C)=O)[C@]5(CC)C=CCN6CC[C@]43[C@@H]65)C2)C1` [VINBLASTINE SULFATE], the IC50 [11] was > 67.5 µM (inactive), the IC50 [12] was > 67.5 µM (inactive) and the AC50 [13] was < 0.26 µM (active). The IC50 [14] was 0.0048 µM (active), the IC50 [15] was 0.001 µM (active) and the IC50 [16] was 0.001 µM (active). The IC50 [17] was 0.001 µM (active), the IC50 [18] was 0.0032 µM (active) and the IC50 [19] was 0.001 µM (active). The IC50 [20] was 0.001 µM (active).

With `CSc1cccc(NC(=O)/C=C/c2ccc(Cl)cc2)c1` the IC50 [21] was > 69.5 µM (inactive) and the IC50 [22] was > 69.5 µM (inactive).

In the case of `CCOC(=O)c1c(-c2ccccc2)[nH]c2ccc(O)cc12`, the IC50 [23] is reported as 22.2 µM (not active).

In the case of `CSc1ccc(CN2CCC2(C)C(=O)Nc2cccc(NS(C)(=O)=O)c2)cc1` (stereo not given), the AC50 [24] is reported as 9.03 µM (active), the AC50 [25] is reported as 58.6 µM (active) and the AC50 [26] is reported as 10.3 µM (active). For the same compound, the AC50 [27] was 11.4 µM (active) and the AC50 [28] was 21.7 µM (active).

For `O=c1cc(O)[nH]c2c1sc1nc(C(F)(F)F)c3c(c12)CCCCC3`, the IC50 [29] was > 39.8 µM (not active), the IC50 [30] was > 39.8 µM (not active) and the IC50 [31] was 11.1 µM (active). For the same compound, the IC50 [32] was 9.53 µM (active).

For `O=C(CCCc1ccc(Br)cc1)N1CCN(Cc2ccc(Cl)cc2)CC1`, the IC50 [1] was > 1 µM (inactive).

In the case of `Cc1ccc2oc(-c3ccc(NC(=O)c4ccc5c(c4)OCO5)cc3)nc2c1`, the IC50 [29] is reported as 2 µM (active) and the IC50 [30] is reported as 2.88 µM (active).

For `CN1CCc2nc(SCC(=O)Nc3cccc(F)c3)c(C#N)c(-c3cccs3)c2C1`, the EC50 [33] was > 50 µM (active), the EC50 [6] was < 0.1 µM (active) and the EC50 [7] was > 60 µM (not active). For the same compound, the EC50 [8] was < 0.004 µM (active).
